Read-outs that look alike come from different tables or passages of the source.
Tests used:
[1] = Pharmacokinetic study of 5 compounds in rat plasma after oral administration of Zuogui Pill extract (HPLC-MS/MS, noncompartmental analysis); format: in vivo, Female Sprague-Dawley rats; settings: oral Zuogui Pill extract 1.5 mL/100 g; for Cmax / CL/F / MRT last / MRT inf / Tmax / half-life: female, Sprague-Dawley, rat, po, 1.5 mL/100 g; for Cmax / Tmax / half-life / AUC0–t / AUC0–∞ / t 1/2: n = 6; for CL/F: n = 6, read-out: CL_F_obs (converted); for MRT last: n = 6, read-out: MRT0–t; for MRT inf: n = 6, read-out: MRT0–∞
Experimental: Female Sprague-Dawley rats (180–220 g) were purchased from Shanghai Laboratory Animal Centre (Shanghai, China). The rats were maintained in a standard environment (22 ± 1°C, 60 ± 10% relative humidity, and a 12 h light/dark cycle) for one week to acclimate and fed water and food ad libitum. Twenty-four rats were divided randomly into […] and treated through ovary enucleation to establish the model of osteoporosis. Ten weeks after operation, osteoporosis models of kidney-yang-deficiency and kidney-yin-deficiency were established by intramuscular injection of hydrocortisone (25 mg/kg) and intragastric administration of thyroxine suspension (160 mg/kg) for 10 days, respectively. The femur of two rats from each group was then stained with hematoxylin and eosin (H&E) to assess histopathological change. Also, the validation of osteoporosis kidney-yang-deficiency and kidney-yin-deficiency models was judged by detecting the level of cyclic adenosine monophosphate (cAMP) and cyclic guanosine monophosphate (cGMP) in rat plasma. Laboratory Animal Management and Ethics Committee of Zhejiang Chinese Medical University approved all animal treatments (ZSLL-2014-48).
One hundred microliters of plasma was mixed with 100 μL of the IS solution, followed by 700 μL of methanol:acetonitrile (1 : 1). After 2 min of vortex mixing, the mixture was spun for 15 min at 8000 rpm and 4°C. The supernatants were collected and dried in a high-purity N2 environment. The residues were redissolved in 100 μL methanol and centrifuged for 15 min at 13000 rpm and 4°C. Finally, an aliquot of 10 μL supernatants was used to conduct the analysis.
Four groups of rats were orally administered with Zuogui Pill extract at a dose of 1.5 mL/100 g. Then, 0.3 mL blood samples were collected from orbital veins at 0, 0.08, 0.17, 0.25, 0.5, 1, 2, 4, 6, 8, 12, and 24 h after administration, placed in an anticoagulant tube, and centrifuged for 15 min at 5000 rpm and 4°C. The plasma was prepared and stored at −20°C until analysis.
Phoenix WinNonlin 6.4 software was used to estimate pharmacokinetic parameters using noncompartmental analysis. Furthermore, SPSS 26 software was used to compute comparisons of the pharmacokinetic data among the four groups according to a one-way ANOVA. The results are presented as mean ± SD.

[2] = Stability of analytes in rat plasma (QC samples) under storage conditions; settings: n = 5; for Stability, Room temperature for 4 h, Mean: 25°C; for Stability, Three freeze-thaw cycles, Mean: −20°C to 25°C
Experimental: QC samples at three levels using five replicates were used to evaluate the stability under the following conditions: 4 h at room temperature (25°C), 24 h in autosampler (4°C), and three freeze-thaw cycles (−20°C to 25°C).

[3] = osteoporosis rats (ovariectomized)
[4] = osteoporotic rats with kidney-yang-deficiency
[5] = osteoporotic rats with kidney-yin-deficiency
[6] = high QC (800, 16000, 3200, 400, 40 ng/mL in the same order)
[7] = middle QC (40, 800, 160, 20, 2 ng/mL in the same order)
[8] = low QC (2, 40, 8, 1, 0.1 ng/mL for chlorogenic acid, loganin, morroniside, aucubin, protocatechuic aldehyde)

Structure (SMILES): O=C(/C=C/c1ccc(O)c(O)c1)O[C@@H]1C[C@](O)(C(=O)O)C[C@@H](O)[C@H]1O [Chlorogenic acid, chlorogenic acid]
- Cmax ([1]; normal rats): 346 ± 64 ng/mL
- CL/F ([1]; normal rats): 15.2 mL/min/kg
- MRT last ([1]; normal rats): 5.46 ± 0.48 h
- MRT inf ([1]; normal rats): 8.17 ± 1.46 h
- Cmax [1, 3]: 279 ± 56.3 ng/mL
- Tmax [1, 3]: 15.6 ± 1.2 min
- half-life [1, 3]: 383 ± 118 min
- CL/F [1, 3]: 17.3 mL/min/kg
- MRT last [1, 3]: 6.78 ± 0.68 h
- MRT inf [1, 3]: 9.72 ± 2.61 h
- Cmax [1, 4]: 430 ± 98.5 ng/mL
- CL/F [1, 4]: 29.5 mL/min/kg
- MRT last [1, 4]: 4.52 ± 1.46 h
- MRT inf [1, 4]: 6.56 ± 2.64 h
- Cmax [1, 5]: 354 ± 83.8 ng/mL
- half-life [1, 5]: 397 ± 230 min
- CL/F [1, 5]: 37.1 mL/min/kg
- MRT last [1, 5]: 3.03 ± 0.38 h
- MRT inf [1, 5]: 4.1 ± 1.02 h
- AUC0–t ([1]; normal rats): 497.98 ± 34.72^∗ h∗ng/mL
- AUC0–∞ ([1]; normal rats): 546.26 ± 38.80 h∗ng/mL
- t 1/2 ([1]; normal rats): 8.17 ± 1.79 h
- AUC0–t [1, 3]: 435.76 ± 59.78 h∗ng/mL
- AUC0–∞ [1, 3]: 489.67 ± 77.69 h∗ng/mL
- AUC0–t [1, 4]: 263.13 ± 40.25^∗∗ h∗ng/mL
- AUC0–∞ [1, 4]: 284.31 ± 33.34^∗∗ h∗ng/mL
- t 1/2 [1, 4]: 5.41 ± 1.84 h
- AUC0–t [1, 5]: 218.55 ± 23.29^∗∗ h∗ng/mL
- AUC0–∞ [1, 5]: 225.89 ± 25.03^∗∗ h∗ng/mL
- Stability, Room temperature for 4 h, Mean [2, 6]: 85.7%
- Stability, Room temperature for 4 h, Mean [2, 7]: 85.9%
- Stability, Autosampler at 4°C for 24 h, Mean [2, 6]: 87.3%
- Stability, Autosampler at 4°C for 24 h, Mean [2, 7]: 93.7%
- Stability, Three freeze-thaw cycles, Mean [2, 6]: 80.9%
- Stability, Three freeze-thaw cycles, Mean [2, 7]: 89.3%

Structure (SMILES): O=Cc1ccc(O)c(O)c1 [Protocatechuic aldehyde, protocatechuic aldehyde]
- Cmax ([1]; normal rats): 18.9 ± 3.62 ng/mL
- Tmax ([1]; normal rats): 27 ± 6 min
- half-life ([1]; normal rats): 652 ± 269 min
- CL/F ([1]; normal rats): 12.5 mL/min/kg
- MRT last ([1]; normal rats): 5.14 ± 0.17 h
- MRT inf ([1]; normal rats): 15.8 ± 6.12 h
- Cmax [1, 3]: 10.1 ± 1.99 ng/mL
- Tmax [1, 3]: 18 min
- half-life [1, 3]: 721 ± 281 min
- CL/F [1, 3]: 21.3 mL/min/kg
- MRT last [1, 3]: 5.52 ± 0.21 h
- MRT inf [1, 3]: 17.8 ± 6.26 h
- Cmax [1, 4]: 11.4 ± 1.31 ng/mL
- half-life [1, 4]: 125 ± 53.4 min
- CL/F [1, 4]: 50.5 mL/min/kg
- MRT last [1, 4]: 2.55 ± 0.18 h
- MRT inf [1, 4]: 3.5 ± 1.38 h
- Cmax [1, 5]: 8.81 ± 1.61 ng/mL
- Tmax [1, 5]: 10.2 ± 4.2 min
- half-life [1, 5]: 132 ± 49.8 min
- CL/F [1, 5]: 48.9 mL/min/kg
- MRT last [1, 5]: 3.24 ± 0.37 h
- MRT inf [1, 5]: 3.79 ± 0.79 h
- AUC0–t ([1]; normal rats): 64.15 ± 10.30^∗∗ h∗ng/mL
- AUC0–∞ ([1]; normal rats): 119.88 ± 32.93^∗∗ h∗ng/mL
- AUC0–t [1, 3]: 34.92 ± 2.37 h∗ng/mL
- AUC0–∞ [1, 3]: 72.28 ± 21.64 h∗ng/mL
- AUC0–t [1, 4]: 24.70 ± 1.69^∗∗ h∗ng/mL
- AUC0–∞ [1, 4]: 28.68 ± 6.49^∗∗ h∗ng/mL
- AUC0–t [1, 5]: 27.48 ± 3.10^∗∗ h∗ng/mL
- AUC0–∞ [1, 5]: 28.87 ± 2.69^∗∗ h∗ng/mL
- Stability, Room temperature for 4 h, Mean [2, 6]: 87.4%
- Stability, Room temperature for 4 h, Mean [2, 8]: 86.8%
- Stability, Room temperature for 4 h, Mean [2, 7]: 90.9%
- Stability, Autosampler at 4°C for 24 h, Mean [2, 6]: 85.9%
- Stability, Autosampler at 4°C for 24 h, Mean [2, 8]: 88.4%
- Stability, Autosampler at 4°C for 24 h, Mean [2, 7]: 89.3%
- Stability, Three freeze-thaw cycles, Mean [2, 6]: 89.5%
- Stability, Three freeze-thaw cycles, Mean [2, 8]: 90.8%
- Stability, Three freeze-thaw cycles, Mean [2, 7]: 83.4%

Structure (SMILES): COC(=O)C1=CO[C@@H](O[C@@H]2O[C@H](CO)[C@@H](O)[C@H](O)[C@H]2O)[C@@H]2[C@@H](C)[C@@H](O)C[C@H]12 [Loganin, loganin]
- Cmax ([1]; normal rats): 13500 ± 2030 ng/mL
- Tmax ([1]; normal rats): 15 min
- half-life ([1]; normal rats): 271 ± 27 min
- CL/F ([1]; normal rats): 6.03 mL/min/kg
- MRT last ([1]; normal rats): 4.58 ± 0.47 h
- MRT inf ([1]; normal rats): 5.1 ± 0.41 h
- Cmax [1, 3]: 8380 ± 1120 ng/mL
- Tmax [1, 3]: 15 min
- half-life [1, 3]: 164 ± 57.6 min
- CL/F [1, 3]: 7.67 mL/min/kg
- MRT last [1, 3]: 4.91 ± 1.29 h
- MRT inf [1, 3]: 5.02 ± 1.34 h
- Cmax [1, 4]: 14.7 ± 1.38 ng/mL
- Tmax [1, 4]: 12.6 ± 3 min
- half-life [1, 4]: 337 ± 97.8 min
- CL/F [1, 4]: 4280 mL/min/kg
- MRT last [1, 4]: 5.5 ± 0.67 h
- MRT inf [1, 4]: 6.62 ± 0.49 h
- Cmax [1, 5]: 16000 ± 2790 ng/mL
- Tmax [1, 5]: 15 min
- half-life [1, 5]: 225 ± 42 min
- CL/F [1, 5]: 2.94 mL/min/kg
- MRT last [1, 5]: 6.51 ± 0.91 h
- MRT inf [1, 5]: 6.92 ± 0.98 h
- AUC0–t ([1]; normal rats): 20134.29 ± 3958.79 h∗ng/mL
- AUC0–∞ ([1]; normal rats): 20523.97 ± 3947.05 h∗ng/mL
- AUC0–t [1, 3]: 17912.12 ± 6898.16 h∗ng/mL
- AUC0–∞ [1, 3]: 17998.56 ± 6945.75 h∗ng/mL
- AUC0–t [1, 5]: 41028.61 ± 6356.26^∗∗ h∗ng/mL
- AUC0–∞ [1, 5]: 41727.10 ± 6203.34^∗∗ h∗ng/mL
- Stability, Room temperature for 4 h, Mean [2, 6]: 85.6%
- Stability, Room temperature for 4 h, Mean [2, 8]: 88.3%
- Stability, Room temperature for 4 h, Mean [2, 7]: 87.4%
- Stability, Autosampler at 4°C for 24 h, Mean [2, 6]: 84.4%
- Stability, Autosampler at 4°C for 24 h, Mean [2, 8]: 94.6%
- Stability, Autosampler at 4°C for 24 h, Mean [2, 7]: 85.8%
- Stability, Three freeze-thaw cycles, Mean [2, 6]: 92.4%
- Stability, Three freeze-thaw cycles, Mean [2, 8]: 86.4%
- Stability, Three freeze-thaw cycles, Mean [2, 7]: 89.5%

Structure (SMILES): OCC1=C[C@@H](O)[C@@H]2C=CO[C@@H](O[C@@H]3O[C@H](CO)[C@@H](O)[C@H](O)[C@H]3O)[C@H]12 [Aucubin, aucubin]
- Cmax ([1]; normal rats): 84.4 ± 32.2 ng/mL
- Tmax ([1]; normal rats): 22.8 ± 8.4 min
- half-life ([1]; normal rats): 358 ± 173 min
- CL/F ([1]; normal rats): 22.6 mL/min/kg
- MRT last ([1]; normal rats): 5.38 ± 2.01 h
- MRT inf ([1]; normal rats): 8.58 ± 2.71 h
- Cmax [1, 3]: 103 ± 23.6 ng/mL
- Tmax [1, 3]: 10.2 min
- half-life [1, 3]: 220 ± 46.8 min
- CL/F [1, 3]: 26.5 mL/min/kg
- MRT last [1, 3]: 3.06 ± 0.12 h
- MRT inf [1, 3]: 5.62 ± 1.09 h
- Cmax [1, 4]: 96 ± 24.2 ng/mL
- Tmax [1, 4]: 15 min
- half-life [1, 4]: 444 ± 101 min
- CL/F [1, 4]: 38.8 mL/min/kg
- MRT last [1, 4]: 2.95 ± 0.38 h
- MRT inf [1, 4]: 11.7 ± 1.31 h
- Cmax [1, 5]: 181 ± 30.7 ng/mL
- Tmax [1, 5]: 15 min
- half-life [1, 5]: 521 ± 175 min
- CL/F [1, 5]: 16 mL/min/kg
- MRT last [1, 5]: 7.32 ± 1.92 h
- MRT inf [1, 5]: 14.1 ± 5.85 h
- AUC0–t ([1]; normal rats): 170.50 ± 64.82 h∗ng/mL
- AUC0–∞ ([1]; normal rats): 204.69 ± 68.61 h∗ng/mL
- AUC0–t [1, 3]: 116.40 ± 11.00 h∗ng/mL
- AUC0–∞ [1, 3]: 155.64 ± 24.54 h∗ng/mL
- AUC0–t [1, 4]: 48.33 ± 14.05^∗∗ h∗ng/mL
- AUC0–∞ [1, 4]: 111.33 ± 29.94 h∗ng/mL
- AUC0–t [1, 5]: 201.40 ± 32.43^∗∗ h∗ng/mL
- AUC0–∞ [1, 5]: 272.67 ± 70.63^∗∗ h∗ng/mL
- Stability, Room temperature for 4 h, Mean [2, 6]: 92.8%
- Stability, Room temperature for 4 h, Mean [2, 8]: 89.8%
- Stability, Room temperature for 4 h, Mean [2, 7]: 91.3%
- Stability, Autosampler at 4°C for 24 h, Mean [2, 6]: 90.2%
- Stability, Autosampler at 4°C for 24 h, Mean [2, 8]: 88.6%
- Stability, Autosampler at 4°C for 24 h, Mean [2, 7]: 92.5%
- Stability, Three freeze-thaw cycles, Mean [2, 6]: 89.1%
- Stability, Three freeze-thaw cycles, Mean [2, 8]: 84.2%
- Stability, Three freeze-thaw cycles, Mean [2, 7]: 86.9%
